These results are taken from patent US20230024302A1, “2,3,5-TRISUBSTITUTED PYRAZOLO[1,5-A]PYRIMIDINE COMPOUNDS” (Arcus Biosciences, Inc., priority 2019, published 2023).

Molecules are shown by their SMILES. Like-named read-outs stand apart in the source and are kept apart here. Bounds are passed on as bounds.

Assay [1] concerns the target T1, PI3Kγ (p120γ) (Homo sapiens, UniProt P48736).
T1 construct: purchased Promega V1761
The assay is described as follows: Inhibition of PI3K kinase activity (ADP Glo), PI3Kγ. The following applies: read-out: biochemical potency (PI3Kγ IC50). The gist of the method: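 Recombinant p120γ (8 nM, 2× stock) was preincubated with compound for 1 h at rt in HEPES pH 7.4, NaCl, MgCl2 and 0.05% BSA. Reaction was started with PIP2 (0.1 mg/ml, 2×) and ATP (50 μM, 2×) and ran 60 min at rt. ADP formed was read by ADP-Glo luminescence, and IC50 came from a 4-parameter fit.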

In assay [2] the target is T2, PI3Kγ (Homo sapiens, UniProt P48736).
T2 construct: host or cells: THP-1
T2 sequence (P48736 whole entry): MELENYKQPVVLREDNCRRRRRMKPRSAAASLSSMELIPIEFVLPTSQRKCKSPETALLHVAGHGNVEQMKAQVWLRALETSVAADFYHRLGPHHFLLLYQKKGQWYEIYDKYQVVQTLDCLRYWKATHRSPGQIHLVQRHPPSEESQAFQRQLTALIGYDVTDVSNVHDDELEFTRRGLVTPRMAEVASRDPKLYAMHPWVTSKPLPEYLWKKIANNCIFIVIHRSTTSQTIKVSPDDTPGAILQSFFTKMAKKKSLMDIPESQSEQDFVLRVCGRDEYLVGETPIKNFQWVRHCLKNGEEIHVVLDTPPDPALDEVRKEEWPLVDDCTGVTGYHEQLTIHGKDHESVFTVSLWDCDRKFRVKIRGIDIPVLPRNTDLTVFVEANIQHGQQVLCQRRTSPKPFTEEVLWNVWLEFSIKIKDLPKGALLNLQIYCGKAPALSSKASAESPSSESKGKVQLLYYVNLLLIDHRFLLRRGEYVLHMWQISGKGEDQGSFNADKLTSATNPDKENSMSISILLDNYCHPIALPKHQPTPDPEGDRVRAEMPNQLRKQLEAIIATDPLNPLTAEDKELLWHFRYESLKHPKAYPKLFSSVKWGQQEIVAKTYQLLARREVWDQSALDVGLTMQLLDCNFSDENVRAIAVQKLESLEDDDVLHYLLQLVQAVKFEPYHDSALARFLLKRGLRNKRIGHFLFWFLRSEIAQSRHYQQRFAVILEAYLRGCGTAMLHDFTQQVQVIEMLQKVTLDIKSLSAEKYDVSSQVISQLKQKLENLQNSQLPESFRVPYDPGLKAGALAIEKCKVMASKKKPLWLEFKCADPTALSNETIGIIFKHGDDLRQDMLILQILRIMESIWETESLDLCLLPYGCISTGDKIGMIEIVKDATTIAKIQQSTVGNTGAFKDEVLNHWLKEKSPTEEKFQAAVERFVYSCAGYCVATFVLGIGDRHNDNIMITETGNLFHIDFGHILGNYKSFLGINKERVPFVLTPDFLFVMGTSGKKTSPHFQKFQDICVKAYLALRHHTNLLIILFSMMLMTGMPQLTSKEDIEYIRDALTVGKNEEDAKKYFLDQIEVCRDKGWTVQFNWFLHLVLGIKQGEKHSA
In words: PI3Kγ cellular assay in THP-1 cells (AKT pS473 AlphaLISA). In kind it is cell-based. The gist of the method:
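Serum-starved THP-1 cells (1.8×10^5/well, serum-free DMEM) treated with compounds from 4 nM to 30 μM in 2% DMSO, then stimulated and lysed.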

[3] abbreviates: Table 1, rhMCP-1 stimulated AKT pS473, read-out: cellular potency (PI3Kγ IC50).
The mark [4] stands for this setting: Table 2, rhMCP-1 stimulated AKT pS473, read-out: cellular potency (PI3Kγ IC50).
The mark [5] stands for this setting: Table 6, rhMCP-1 stimulated AKT pS473, read-out: cellular potency (PI3Kγ IC50).

T1 sequence (P48736 whole entry): as above

As usually defined, the IC50 is the concentration at which inhibition is half-maximal. For `C[C@@H](C1CC1)N1Cc2cc(-c3ccn4nc(N)c(C(=O)N[C@H]5CNC(=O)C5)c4n3)cc(OC(F)(F)F)c2C1=O` [Example 28, 2-Amino-5-{2-[(1S)-1-cyclopropylethyl]-1-oxo-7-(trifluoromethoxy)-2,3-dihydro-1H-isoindol-5-yl}-N-[(3R)-5-oxopyrrolidin-3-yl]pyrazolo[1,5-a]pyrimidine-3-carboxamide], the IC50 in assay [1] (Table 1, p120γ) was below 0.1 µM; in assay [2] (setting [3]), below 0.1 µM.
On to `CC(C)NC(=O)c1c(N)nn2ccc(-c3cc4c(c(NS(C)(=O)=O)c3)C(=O)N([C@@H](C)C3CC3)C4)nc12` [Example 75, 2-Amino-5-{2-[(1S)-1-cyclopropylethyl]-7-methanesulfonamido-1-oxo-2,3-dihydro-1H-isoindol-5-yl}-N-(propan-2-yl)pyrazolo[1,5-a]pyrimidine-3-carboxamide], for which the IC50 is below 0.1 µM in assay [1] (Table 1, p120γ) and below 0.1 µM in assay [2] (setting [3]).
For the compound `Cc1cc(-c2ccn3nc(N)c(C(=O)NC4(C(N)=O)CC4)c3n2)cc2c1C(=O)N([C@@H](C)C1CC1)C2` [Example 247], the IC50 in assay [1] (Table 2, p120γ) was below 0.1 µM; in assay [2] (setting [4]), 0.1 to 1 µM.
For `C[C@@H](C1CC1)N1Cc2cc(-c3ccn4nc(N)c(C(=O)NC5CC5)c4n3)cc(OCC(F)(F)F)c2C1=O` [Example 155, 2-Amino-N-cyclopropyl-5-{2-[(1S)-1-cyclopropylethyl]-1-oxo-7-(2,2,2-trifluoroethoxy)-2,3-dihydro-1H-isoindol-5-yl}pyrazolo[1,5-a]pyrimidine-3-carboxamide], the IC50 in assay [1] (Table 1, p120γ) is below 0.1 µM; in assay [2] (setting [3]), below 0.1 µM.
Consider `Cc1cc(-c2ccn3nc(N)c(C(=O)N4CCCC4CO)c3n2)cc2c1C(=O)N(C(C)C1CC1)C2` (stereo not drawn) [Example 288], for which the IC50 is 0.1 to 1 µM in assay [1] (Table 2, p120γ) and above 1 µM in assay [2] (setting [4]).
For `C[C@@H](C1CC1)N1Cc2cc(-c3ccn4nc(N)c(C(=O)Nc5ccc(CC(F)(F)F)nc5)c4n3)cc(NS(C)(=O)=O)c2C1=O` [Example 389], the IC50 was below 0.1 µM in assay [1] and 0.1 to 1 µM in assay [2] (AKT pS473, read-out: cellular potency (PI3Kγ IC50)).
As for `Cc1cc(-c2ccn3nc(N)c(C(=O)NCCO)c3n2)cc2c1C(=O)N([C@@H](C)C1CC1)C2` [Example 186], the IC50 is below 0.1 µM in assay [1] (Table 2, p120γ) and 0.1 to 1 µM in assay [2] (setting [4]).
In the case of `C[C@@H](C1CC1)N1Cc2cc(-c3ccn4nc(N)c(C(=O)N[C@H]5CCC(=O)NC5)c4n3)cc(OC(F)(F)F)c2C1=O` [Example 413], the IC50 in assay [1] (Table 6, p120γ) is below 0.1 µM; in assay [2] (setting [5]), 0.1 to 1 µM.
On to `C[C@H](N1Cc2cc(-c3ccn4nc(N)c(C(=O)NC5(C#N)COC5)c4n3)cc(NS(C)(=O)=O)c2C1=O)C(F)(F)F` [Example 117, (S)-2-Amino-N-(3-cyanooxetan-3-yl)-5-(7-(methylsulfonamido)-1-oxo-2-(1,1,1-trifluoropropan-2-yl)isoindolin-5-yl)pyrazolo[1,5-a]pyrimidine-3-carboxamide], for which the IC50 is below 0.1 µM in assay [1] (Table 1, p120γ) and below 0.1 µM in assay [2] (setting [3]).
As to `CCNS(=O)(=O)c1cc(-c2ccn3nc(N)c(C(=O)NC4CC4)c3n2)cc2c1C(=O)N([C@@H](C)C1CC1)C2` [Example 143, 2-Amino-N-cyclopropyl-5-{2-[(1S)-1-cyclopropylethyl]-7-(ethylsulfamoyl)-1-oxo-2,3-dihydro-1H-isoindol-5-yl}pyrazolo[1,5-a]pyrimidine-3-carboxamide], the IC50 was below 0.1 µM in assay [1] (Table 1, p120γ) and below 0.1 µM in assay [2] (setting [3]).
As to `C[C@@H](C1CC1)N1Cc2cc(-c3ccn4nc(N)c(C(=O)N[C@@H](CO)C5CC5)c4n3)cnc2C1=O` [Example 454], the IC50 in assay [1] (Table 7, p120γ) is below 0.1 µM; in assay [2] (Table 7, rhMCP-1 stimulated AKT pS473, read-out: cellular potency (PI3Kγ IC50)), above 1 µM.
With `C[C@@H](C1CC1)N1Cc2cc(-c3ccn4nc(N)c(C(=O)Nc5cccnc5)c4n3)cc(OC(F)(F)F)c2C1=O` [Example 41, (S)-2-Amino-5-(2-(1-cyclopropylethyl)-1-oxo-7-(trifluoromethoxy)isoindolin-5-yl)-N-(pyridin-3-yl)pyrazolo[1,5-a]pyrimidine-3-carboxamide], the half-maximal inhibitory concentration (IC50) is below 0.1 µM in assay [1] (Table 1, p120γ) and below 0.1 µM in assay [2] (setting [3]).
Take `Cc1cc(-c2ccn3nc(N)c(C(=O)NC4COC4)c3n2)cc2c1C(=O)N(CC(C)(C)O)C2` [Example 320]: the IC50 in assay [1] (Table 2, p120γ) was below 0.1 µM; in assay [2] (setting [4]), 0.1 to 1 µM.
On to `Cc1cc(-c2ccn3nc(N)c(C(=O)N[C@@H]4C[C@@H]4F)c3n2)cc2c1C(=O)N([C@@H](C)C1CC1)C2` [Example 263], for which the IC50 in assay [1] (Table 2, p120γ) was below 0.1 µM; in assay [2] (setting [4]), 0.1 to 1 µM.
With `C[C@H](CO)NC(=O)c1c(N)nn2ccc(-c3cc4c(c(C(F)(F)F)c3)C(=O)N([C@@H](C)C3CC3)C4)nc12` [Example 50, 5-(3-{[(R)-2-Hydroxy-1-methylethylamino]carbonyl}-2-amino-1,4,7a-triaza-5-indenyl)-2-[(S)-1-cyclopropylethyl]-7-(trifluoromethyl)-1-isoindolinone], the IC50 in assay [1] (Table 1, p120γ) is below 0.1 µM; in assay [2] (setting [3]), below 0.1 µM.
`C[C@@H](C1CC1)N1Cc2cc(-c3ccn4nc(N)c(C(=O)N[C@H]5CC[C@@](C)(O)CC5)c4n3)cc(N3CCN(C)CC3)c2C1=O` [Example 437]: the half-maximal inhibitory concentration (IC50) in assay [1] (Table 6, p120γ) is below 0.1 µM; in assay [2] (setting [5]), 0.1 to 1 µM.
With `C[C@@H](C1CC1)N1Cc2cc(-c3ccn4nc(N)c(C(=O)NC5CC5)c4n3)cc(S(C)(=O)=O)c2C1=O` [Example 132, 2-Amino-N-cyclopropyl-5-{2-[(1S)-1-cyclopropylethyl]-7-methanesulfonyl-1-oxo-2,3-dihydro-1H-isoindol-5-yl}pyrazolo[1,5-a]pyrimidine-3-carboxamide], the IC50 in assay [1] (Table 1, p120γ) was below 0.1 µM; in assay [2] (setting [3]) it was below 0.1 µM.
Regarding `Cc1cc(-c2ccn3nc(N)c(C(=O)NC(C)CO)c3n2)cc2c1C(=O)N([C@@H]1CCC[C@@H](O)C1)C2` (stereo partly drawn) [Example 325], the IC50 in assay [1] (Table 2, p120γ) is below 0.1 µM; in assay [2] (setting [4]) it was above 1 µM.
In the case of `Cc1cc(-c2ccn3nc(N)c(C(=O)NCc4ccncc4)c3n2)cc2c1C(=O)N([C@@H](C)C1CC1)C2` [Example 201], the IC50 is below 0.1 µM in assay [1] (Table 2, p120γ) and 0.1 to 1 µM in assay [2] (setting [4]).
As for `C[C@@H](C1CC1)N1Cc2cc(-c3ccn4nc(N)c(C(=O)N[C@H]5CC[C@H](C6(O)CC6)CC5)c4n3)cc(C(F)(F)F)c2C1=O` [Example 62, 2-Amino-5-(2-((S)-1-cyclopropylethyl)-1-oxo-7-(trifluoromethyl)isoindolin-5-yl)-N-(trans-4-(1-hydroxycyclopropyl)cyclohexyl)pyrazolo[1,5-a]pyrimidine-3-carboxamide], the IC50 was below 0.1 µM in assay [1] (Table 1, p120γ) and below 0.1 µM in assay [2] (setting [3]).
With `C[C@@H](C1CC1)N1Cc2cc(-c3ccn4nc(N)c(C(=O)N[C@H]5CCCNC5)c4n3)cc(OC(F)(F)F)c2C1=O` [Example 421], the IC50 in assay [1] (Table 6, p120γ) is below 0.1 µM; in assay [2] (setting [5]), 0.1 to 1 µM.
Turning to `Cc1cc(-c2ccn3nc(N)c(C(=O)NC4CC4)c3n2)cc2c1C(=O)N([C@H](C)c1cccnc1)C2` [Example 333], the 50% inhibitory concentration (IC50) in assay [1] (Table 2, p120γ) is below 0.1 µM; in assay [2] (setting [4]) it was above 1 µM.
With `C[C@@H](C1CC1)N1Cc2cc(-c3ccn4nc(N)c(C(=O)N[C@H]5CNC(=O)C5)c4n3)cc(O[C@@H]3CCOC3)c2C1=O` [Example 145, 2-Amino-5-{2-[(1S)-1-cyclopropylethyl]-1-oxo-7-[(3R)-oxolan-3-yloxy]-2,3-dihydro-1H-isoindol-5-yl}-N-[(3R)-5-oxopyrrolidin-3-yl]pyrazolo[1,5-a]pyrimidine-3-carboxamide], the half-maximal inhibitory concentration (IC50) in assay [1] (Table 1, p120γ) was below 0.1 µM; in assay [2] (setting [3]) it was below 0.1 µM.
As to `Cc1cc(-c2ccn3nc(N)c(C(=O)NC(C)CO)c3n2)cc2c1C(=O)N([C@H](C)c1cccnc1)C2` (stereo partly drawn) [Example 332], the concentration for half-maximal inhibition (IC50) in assay [1] (Table 2, p120γ) is below 0.1 µM; in assay [2] (setting [4]), above 1 µM.
